Values of other authors in patent publication US20130007910A1, “STRUCTURE OF THE BRASS[…] BRI1, AND MODULATION OF BRI1 SIGNALING” (Salk Institute for Biological Studies (027731), priority 2011, published 2013).

Target: T1, BRI1 (Arabidopsis thaliana, UniProt O22476)
T1 sequence (O22476 24-1196): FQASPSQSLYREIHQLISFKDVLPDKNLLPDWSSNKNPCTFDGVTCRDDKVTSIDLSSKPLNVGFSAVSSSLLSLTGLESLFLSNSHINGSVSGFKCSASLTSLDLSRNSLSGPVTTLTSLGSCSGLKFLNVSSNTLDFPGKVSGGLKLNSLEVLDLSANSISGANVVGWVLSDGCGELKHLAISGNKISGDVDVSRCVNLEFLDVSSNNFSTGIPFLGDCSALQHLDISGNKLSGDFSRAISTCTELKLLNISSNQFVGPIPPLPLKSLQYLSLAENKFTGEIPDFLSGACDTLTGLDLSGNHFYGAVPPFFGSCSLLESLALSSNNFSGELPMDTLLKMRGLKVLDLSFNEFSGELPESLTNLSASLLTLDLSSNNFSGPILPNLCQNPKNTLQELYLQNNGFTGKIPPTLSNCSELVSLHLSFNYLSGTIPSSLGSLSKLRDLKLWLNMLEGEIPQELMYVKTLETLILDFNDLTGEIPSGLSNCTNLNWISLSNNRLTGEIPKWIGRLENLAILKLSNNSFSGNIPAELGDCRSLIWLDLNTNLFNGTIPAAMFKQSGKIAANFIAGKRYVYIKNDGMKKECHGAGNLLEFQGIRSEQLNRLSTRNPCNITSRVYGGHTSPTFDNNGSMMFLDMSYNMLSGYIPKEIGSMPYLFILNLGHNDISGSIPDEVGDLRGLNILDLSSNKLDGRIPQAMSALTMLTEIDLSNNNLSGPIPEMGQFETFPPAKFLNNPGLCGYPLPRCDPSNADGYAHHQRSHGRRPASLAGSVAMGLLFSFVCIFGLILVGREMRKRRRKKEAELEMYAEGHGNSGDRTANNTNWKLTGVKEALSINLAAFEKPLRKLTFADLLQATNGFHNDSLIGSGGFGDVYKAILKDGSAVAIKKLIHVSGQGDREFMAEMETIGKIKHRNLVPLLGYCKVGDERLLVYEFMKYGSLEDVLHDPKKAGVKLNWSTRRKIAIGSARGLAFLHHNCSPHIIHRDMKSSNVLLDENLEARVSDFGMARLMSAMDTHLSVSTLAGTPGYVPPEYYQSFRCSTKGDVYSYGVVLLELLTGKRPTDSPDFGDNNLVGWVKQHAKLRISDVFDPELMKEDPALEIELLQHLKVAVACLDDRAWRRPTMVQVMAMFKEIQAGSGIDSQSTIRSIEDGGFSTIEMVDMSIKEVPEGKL
Conditions: for recognition of steroid ligand by BRI1: known behaviour, explained from the co-crystal structure (alkyl side chain pocket, B-ring contacts)

In the case of `C[C@H]([C@H](O)CCC(C)(C)O)[C@H]1CC[C@@]2(O)C3=CC(=O)[C@@H]4C[C@@H](O)[C@@H](O)C[C@]4(C)[C@H]3CC[C@]12C` [ecdysone], the “recognition of steroid ligand by BRI1” value is given as “cannot be recognized by BRI1”.

For `CC(C)[C@H](C)[C@@H](O)[C@H](O)[C@@H](C)[C@H]1CC[C@H]2[C@@H]3COC(=O)[C@H]4C[C@H](O)[C@H](O)C[C@]4(C)[C@H]3CC[C@]12C` [brassinolide], the “affinity of binding to BRI1” value (stated in words, no method or figure given) is given as “nanomolar”.

For `CC(C)[C@H](C)[C@@H](O)[C@H](O)[C@@H](C)[C@H]1CC[C@H]2[C@@H]3CC(=O)[C@H]4C[C@H](O)[C@H](O)C[C@]4(C)[C@H]3CC[C@]12C` [castasterone], the “recognition of steroid ligand by BRI1” value is given as “tolerated by BRI1”.
